Records with an inconclusive call do not appear. Active and inactive are the calls of the source.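 Rule for the calls: active = compound lowering the normal-ribosome reporter at least twice as much as the humanized-ribosome reporter, growth loss under a set limit; inconclusive = no clear call, values can overlap the other calls; inactive = the rest.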
System: E. coli WT-GFP vs G2058-humanized RFP, fluorescence, 24 h
Test: growth inhibition of wild-type GFP E. coli versus G2058-humanized strain, dose response, G2058 mutant RFP vs wild-type GFP, cherry-pick, two tests (AID 1035470)
[1] = E. coli WT-GFP vs G2058-humanized RFP mixed culture, total growth OD600, 24 h
[2] = measured here: G2058 humanized mutant RFP growth

Row | Compound | AC50 | AC50 [1] | AC50 [2]
1 | CCN(CC(=O)Nc1ccccc1OC)CC(=O)Nc1c(Cl)ccc(C)c1Cl | > 100 µM (inactive) | > 100 µM | 
2 | CCn1c(COc2cccc(OC)c2)nnc1SCC(=O)Nc1cc(OC)ccc1OC |  |  | 19.4 µM
3 | Cn1cc(CN2CCCC(C(=O)Nc3cccc(-c4cc5ccccc5[nH]4)c3)C2)cn1 (stereo unspecified) | > 100 µM (inactive) |  | 
4 | CC(=O)c1c(C)nn(CC(O)COc2ccc3c(c2)CCC3)c1C (stereo unspecified) | > 100 µM (inactive) |  | 
5 | O=C(COC(=O)CCSc1ccc(F)cc1)NCc1ccc(F)cc1 | > 100 µM (inactive) | > 100 µM | 
6 | CC(=O)OC(COc1cccc(C)c1)Cn1cnc2ccccc21 (stereo unspecified) | > 100 µM (inactive) | > 100 µM | 
7 | CC(C)n1nnnc1C1c2ccccc2C(=O)N1CCOc1ccccc1 (stereo unspecified) | > 100 µM (inactive) |  | 
8 | CCC1CCCCN1C(=O)CSc1nnc(-c2cccc(Cl)c2)o1 (stereo unspecified) |  | > 100 µM | 
9 | O=S1(=O)N[C@H](Cc2ccccc2)COc2cc(N3CCSCC3)ccc21 |  | > 100 µM | 
10 | COc1ccc(-c2noc(CCc3ccccc3)n2)cc1 | > 100 µM (inactive) |  | 
11 | COc1ccc(CNC(=O)c2sc3nc4c(c(C(F)(F)F)c3c2N)CCC4)cc1OC |  |  | > 100 µM
12 | O=C(CC1C(=O)N(c2ccc(Cl)cc2)C(=S)N1CCc1ccncc1)Nc1ccc(F)cc1 (stereo unspecified) | > 100 µM (inactive) | 41.8 µM | 
13 | NC(=O)c1cc(NC(=O)c2cc(Br)c(Br)s2)cc(C(N)=O)c1 | > 100 µM (inactive) |  | 
14 | COc1ccc(CC(=O)NC(C)c2ccc3ccccc3c2)cc1 (stereo unspecified) |  |  | 5.4 µM
15 | NC(=O)CSc1nc2cc([N+](=O)[O-])ccc2n1-c1cccc(C(F)(F)F)c1 | > 100 µM (inactive) | > 100 µM | 
16 | O=c1c2ccccc2cnn1Cc1n[nH]c(=S)n1C1CC2CCC1C2 (stereo unspecified) | > 100 µM (inactive) | > 100 µM | 
17 | CCN(CC)S(=O)(=O)c1cc(NC(=O)C(C)N2CCN(Cc3ccc4c(c3)OCO4)CC2)ccc1C (stereo unspecified) | > 100 µM (inactive) |  | > 100 µM
18 | CC(=O)Oc1ccc(N(C(C)=O)S(=O)(=O)c2ccc(C)cc2)c2ccccc12 | > 100 µM (inactive) | > 100 µM | 
19 | CN1OC[C@@H]2CN(C(=O)c3ccco3)[C@H](c3ccc(-c4ccc(C#N)cc4)cc3)C[C@@H]21 | > 100 µM (inactive) | > 100 µM | 
20 | O=C(Nc1cccc(Oc2ccc3c(c2)C(=O)NC3=O)c1)c1cccs1 | > 100 µM (inactive) |  | 
21 | COc1ccc(OC)c(NC(=O)COc2ccc(S(=O)(=O)NC(C)C)cc2)c1 |  | > 100 µM | 
22 | CN1C(=O)c2cccc3c(S(=O)(=O)NCCc4ccccc4)ccc1c23 | > 100 µM (inactive) | > 100 µM | 

Row | Compound | AC50 | AC50 [1] | AC50 [2]
23 | CCOC(=O)c1c(C)[nH]c(C)c1S(=O)(=O)NCCN1CCN(c2ccccc2F)CC1 | > 100 µM (inactive) | > 100 µM | 
24 | CCOc1ccc(C(C)=O)cc1CN1C(=O)NC2(CCCCCCC2)C1=O | > 100 µM (inactive) | > 100 µM | 
25 | Cn1ccc2cc(-c3ccc4ncnc(NCc5cccs5)c4c3)ccc21 |  | > 100 µM | 
26 | Cc1cc2c(sc3ccccc32)c(C)n1 | > 100 µM (inactive) | > 100 µM | 48.8 µM
27 | CC(=O)N1CCOc2ccc(S(=O)(=O)N(C)c3ccc(C)cc3)cc21 | > 100 µM (inactive) |  | 
28 | NS(=O)(=O)c1ccc(Nc2c([N+](=O)[O-])cncc2[N+](=O)[O-])cc1 | > 100 µM (inactive) |  | 
29 | O=C(NCc1ccccc1Cl)[C@H]1CCCN1C(=O)[C@H]1CCCN1C(=O)c1cccc2ccccc12 | > 100 µM (inactive) | > 100 µM | 
30 | Nc1nc(Nc2ccccc2F)nc(N2CCOCC2)c1[N+](=O)[O-] | > 100 µM (inactive) |  | 
31 | Cc1c(-c2cccc(Cl)c2)nc2ccccc2c1C(=O)N1CCC2(CC1)OCCO2 | > 100 µM (inactive) |  | 
32 | CCCNc1ccc(C(=O)OCC)cc1[N+](=O)[O-] | > 100 µM (inactive) | > 100 µM | 
33 | Cc1onc(-c2ccccc2Cl)c1C(=O)OCC(=O)c1ccccc1 | > 100 µM (inactive) |  | 
34 | CC1C=Cc2ccccc2N1C(=O)c1ccccc1 (stereo unspecified) | > 100 µM (inactive) |  | 
35 | O=C1c2cccc3cccc(c23)C(=O)N1c1ccccc1Cl | > 100 µM (inactive) |  | 
36 | Fc1ccc(-c2nc3ccc(Cl)cn3c2Cc2cccc(Cl)c2)cc1 |  | > 100 µM | 
37 | Cc1ccc(C2NC(=O)c3[nH]nc(-c4ccccc4)c32)cc1 (stereo unspecified) | > 100 µM (inactive) | > 100 µM | 
38 | O=C(Nc1ccccc1Cl)c1ccc2c(c1)N(Cc1ccc(F)cc1)C(=O)CS2=O (stereo unspecified) | > 100 µM (inactive) |  | 
39 | COc1cccc(CN(C)Cc2nc(Cc3ccccc3Cl)no2)c1 | > 100 µM (inactive) | > 100 µM | 
40 | O=C(O)c1cc(-c2ccc(Cl)s2)nc2ccccc12 | > 100 µM (inactive) |  | 
41 | COc1ccc(S(=O)(=O)N2CCOc3ccccc32)cc1 |  | > 100 µM | > 100 µM
42 | Nc1ccc(C(=O)OCCc2ccccc2)cc1 | > 100 µM (inactive) |  | 45.9 µM
43 | COc1ccc2nc(SCC(=O)Nc3ccccc3)[nH]c2c1 | > 100 µM (inactive) |  | 
44 | C=CCN(CC=C)C(=O)c1ccc2nc(Cc3ccc(OC)c(OC)c3)oc2c1 | > 100 µM (inactive) |  | 

Row | Compound | AC50 | AC50 [1] | AC50 [2]
45 | Cn1nc(C(=O)Nc2cccc(S(=O)(=O)N3CCCCC3)c2)c2ccccc2c1=O | > 100 µM (inactive) | > 100 µM | 
46 | O=C(Nc1cccc2c1CCCC2)c1ccco1 | > 100 µM (inactive) | > 100 µM | 
47 | CC1(C(=O)NS(=O)(=O)c2cccc(Cl)c2)CCN1C(=O)C1(c2ccc(Cl)cc2)CCC1 (stereo unspecified) | > 100 µM (inactive) |  | 
48 | COc1ccc(CN2CCC3CC2c2cc(Cl)ccc23)cc1 (stereo unspecified) | > 100 µM (inactive) |  | 
49 | Cc1nc(C)c(-c2ccn(S(=O)(=O)c3ccc(Cl)cc3)n2)o1 | > 100 µM (inactive) |  | 
50 | COCC(C)NC(=O)c1nn(Cc2ccccc2)c(=O)c2ccccc12 (stereo unspecified) |  | > 100 µM | 
51 | Oc1ccc(-c2csc(Nc3ncccn3)n2)cc1 |  | > 100 µM | > 100 µM
52 | COc1ccc(CC(=O)NCc2csc(-c3cccs3)n2)cc1OC | > 100 µM (inactive) |  | 
53 | O=C(O)c1ccc(Oc2ccc([N+](=O)[O-])cc2)c([N+](=O)[O-])c1 | > 100 µM (inactive) |  | 
54 | COc1ccc(C(=O)Nc2ccc3nc(C)sc3c2)cc1OC | > 100 µM (inactive) |  | 
55 | O=C(COC(=O)Cc1ccccc1F)Nc1ccc(Cl)cn1 | > 100 µM (inactive) |  | 
56 | COc1cccc(C(=O)C2CCCN(C/C=C/c3ccccc3OC)C2)c1 (stereo unspecified) | > 100 µM (inactive) |  | > 100 µM
57 | Cc1cc([N+](=O)[O-])nn1CC(=O)Nc1cc(F)ccc1F | > 100 µM (inactive) |  | 
58 | COc1ccc(CN2C(=O)CC(Cc3cc(C)cc(C)c3)C2=O)cc1OC (stereo unspecified) |  | > 100 µM | 
59 | Cc1ccc(C)c(-c2[nH]ncc2CN2CCCC(CO)(Cc3ccccc3C)C2)c1 (stereo unspecified) | > 100 µM (inactive) | > 100 µM | 
60 | COc1cccc(NC(=O)CSc2nc3c(sc4ccccc43)c(=O)n2CCN(C)C)c1 | > 100 µM (inactive) |  | 
61 | COc1cccc(S(=O)(=O)N2CCCCN3[C@H](CO)[C@H](c4ccc(C#CC(C)C)cc4)[C@@H]3C2)c1 | > 100 µM (inactive) | > 100 µM | 
62 | Nc1ncncc1-c1ccc2ccccc2c1 | > 100 µM (inactive) |  | 48.9 µM
63 | Cc1noc(C)c1COc1cccc(C(=O)N2CCc3ccccc32)c1 | > 100 µM (inactive) |  | 
64 | Nc1c(C(=O)NCCN2CCOCC2)c2nc3ccccc3nc2n1Cc1ccccc1 | > 100 µM (inactive) |  | 
65 | CC(C)(CC(=O)O)CC(=O)NCc1c(Cl)cccc1Sc1ccc(Cl)cc1 | > 100 µM (inactive) |  | 
66 | CCOc1ccccc1C(=O)NCC(=O)OCCOc1cccc(Cl)c1 |  |  | > 100 µM

Row | Compound | AC50 | AC50 [1] | AC50 [2]
67 | CNC(=O)c1cc(C(=O)c2ccc(C(F)(F)F)cc2F)c[nH]1 | > 100 µM (inactive) | > 100 µM | 
68 | CCCC#C/C(CCC)=C1\c2ccccc2C(=O)N1c1ccccc1 | > 100 µM (inactive) | > 100 µM | 
69 | CC1Cc2cc(-c3csc(NC(=O)Cc4ccccc4)n3)ccc2N1S(C)(=O)=O (stereo unspecified) | > 100 µM (inactive) | > 100 µM | 
70 | O=C(C1Cc2ccccc2CN1C(=O)c1ccccc1)N1CCN(c2ccccc2)CC1 (stereo unspecified) | > 100 µM (inactive) | > 100 µM | > 100 µM
71 | O=C(Nc1ccc(Br)cc1)c1cccnc1N1CCCCC1 | > 100 µM (inactive) | > 100 µM | 
72 | CCOC(=O)c1sc(Nc2cccc(Cl)c2)nc1C | > 100 µM (inactive) |  | 
73 | O=C(COn1nnc2ccc(C(F)(F)F)cc21)Nc1c(Cl)cccc1Cl | > 100 µM (inactive) | > 100 µM | 
74 | CN(C)CCCN(C(=O)CCSc1ccccc1)c1nc2cc3c(cc2s1)OCO3 | > 100 µM (inactive) | > 100 µM | 
75 | CC(=O)Oc1ccc(N(c2ccccc2)S(=O)(=O)c2ccc(C)cc2)cc1 |  | > 100 µM | 
76 | COc1cc(OC)cc(C(=O)Nc2ccc(C(=O)Nc3ccccc3OC)cc2)c1 | > 100 µM (inactive) | > 100 µM | 
77 | c1ccc(Nc2ccc3ccccc3c2)cc1 | > 100 µM |  | > 100 µM
78 | O=C(CCc1ccccc1)Nc1sc2c(c1C(=O)O)CCCC2 | > 100 µM (inactive) |  | 
79 | O=C(Nc1cccc2ccccc12)c1ccc([N+](=O)[O-])o1 | > 100 µM (inactive) | > 100 µM | 
80 | Cc1ccc(-c2c[n+](CC(=O)Nc3ccccc3)c3n2CCC3)cc1 |  |  | > 100 µM
81 | CCOc1ccc2nc(NC(=O)CSc3nc(SC)ns3)sc2c1 | > 100 µM (inactive) | > 100 µM | 
82 | CC(C)C[C@H]1COc2cc(Br)ccc2S(=O)(=O)N1 | > 100 µM (inactive) | > 100 µM | > 100 µM
83 | COc1cc2cc(C(=O)Nc3ccc4c(c3)OCCO4)[nH]c2cc1OC | > 100 µM (inactive) |  | 
84 | CNC(=O)C[C@H]1CC[C@@H]2[C@@H](COc3ccc(NC(=O)Nc4ccc(F)c(F)c4)cc3C(=O)N2C)O1 | > 100 µM (inactive) |  | 
85 | CC1CCN(c2ccc3nnc(CCC(=O)Nc4cccc(F)c4)n3n2)CC1 | > 100 µM (inactive) | > 100 µM | 
86 | C[n+]1ccccc1/C=C/c1cc(Br)ccc1O | > 100 µM (inactive) |  | 
87 | O=C(Nc1cccc(Cl)c1)N1C[C@H]2[C@@H](c3ccccc31)[C@H](CO)N2Cc1ccncc1 | > 100 µM (inactive) |  | 
88 | O=C(c1ccc(Cl)cc1)N1CCN(c2cccc3[nH]ccc23)CC1 | > 100 µM (inactive) | > 100 µM | 
